Columns and labels:
Plasmodium falciparum [1] = assay: Antiplasmodial activity against Plasmodium falciparum K1 infected in human Erythrocyte measured after 72 hrs by SYBR green fluorescence dye based microplate reader analysis; assay type: functional, organism-based
Plasmodium falciparum [2] = assay: Antiplasmodial activity against Plasmodium falciparum Dd2 infected in human Erythrocyte measured after 72 hrs by SYBR green fluorescence dye based microplate reader analysis; assay type: functional, organism-based
Plasmodium falciparum [3] = assay: Antiplasmodial activity against chloroquine-sensitive Plasmodium falciparum 3D7 infected in human erythrocyte incubated for 72 hrs by SYBR green I staining based fluorescence assay; assay type: functional, organism-based; conditions: 3D7, Erythrocyte
Plasmodium falciparum [4] = assay: Antimalarial activity against chloroquine-resistant Plasmodium falciparum K1 assessed as reduction in cell growth; assay type: functional, organism-based
Plasmodium falciparum [5] = assay: Antimalarial activity against chloroquine resistant Plasmodium falciparum FcB1/Colombia assessed as inhibition of parasite growth incubated for 24 hrs by liquid scintillation spectrometer analysis; assay type: functional, organism-based
Plasmodium falciparum [6] = assay: Antimalarial activity against chloroquine-resistant Plasmodium falciparum Dd2 assessed as reduction in parasitic growth incubated for 72 hrs by Giemsa-staining based microscopic analysis; assay type: functional, organism-based; conditions: Dd2, 72 h
Plasmodium falciparum [7] = assay: Antimalarial activity against chloroquine-sensitive Plasmodium falciparum 3D7 by SYBR green I assay; assay type: functional, organism-based
Plasmodium falciparum [8] = assay: Antiplasmodial activity against chloroquine-resistant Plasmodium falciparum W2 assessed as parasitic growth inhibition incubated for 72 hrs by SYBR Green staining based fluorescence analysis; assay type: functional, organism-based; conditions: W2, 72 h
Plasmodium falciparum [9] = assay: Antiplasmodial activity against chloroquine-sensitive Plasmodium falciparum 3D7 assessed as parasitic growth inhibition incubated for 72 hrs by SYBR Green staining based fluorescence analysis; assay type: functional, organism-based; conditions: 3D7, 72 h
[10] = Cytotoxicity against African green monkey Vero cells assessed as reduction in cell viability measured after 24 hrs; assay type: toxicity, cell-based; conditions: African green monkey (Chlorocebus sabaeus)
Plasmodium falciparum [11] = assay: Antimalarial activity against chloroquine-resistant Plasmodium falciparum Dd2 assessed as inhibition of parasite growth; assay type: functional, organism-based
Plasmodium falciparum [12] = assay: Antimalarial activity against Plasmodium falciparum 3D7 assessed as inhibition of parasite growth incubated for 96 hrs; assay type: functional, organism-based; conditions: 3D7, 96 h
Plasmodium falciparum [13] = assay: Antimalarial activity against Plasmodium falciparum 3D7 assessed as inhibition of parasite growth; assay type: functional, organism-based
Plasmodium falciparum [14] = assay: Antimalarial activity against CQ-resistant Plasmodium falciparum RKL9; assay type: functional, organism-based
Plasmodium falciparum [15] = assay: Antimalarial activity against Plasmodium falciparum K1 assessed as inhibition of parasitic growth; assay type: functional, organism-based
HepG2 = assay: Cytotoxicity against human HepG2 cells assessed as cell growth inhibition measured after 72 hrs by MTT assay; assay type: functional
Plasmodium falciparum [16] = assay: Antimalarial activity against drug sensitive Plasmodium falciparum NF54 assessed as inhibition of parasite growth; assay type: functional, organism-based
Plasmodium falciparum [17] = assay: Antiplasmodial activity against Plasmodium falciparum 3D7 infected in human erythrocytes assessed as growth inhibition after 72 hrs by SYBR Gren-I fluorescent dye based method; assay type: functional, organism-based; conditions: 3D7, 72 h
Plasmodium falciparum [18] = assay: Antimalarial activity against chloroquine-sensitive Plasmodium falciparum NF54 assessed as reduction in cell growth; assay type: functional, organism-based
Plasmodium berghei = assay: Antimalarial activity against liver stage Plasmodium berghei; assay type: functional, organism-based

## C#CCCCN(CCNc1ccnc2cc(Cl)ccc12)C(=O)CCC(=O)O[C@@H]1O[C@@H]2O[C@@]3(C)CC[C@H]4[C@H](C)CC[C@@H]([C@H]1C)[C@@]24OO3
Plasmodium falciparum [1]
  EC50: 0.0013 µM
Plasmodium falciparum [2]
  EC50: 0.0016 µM
Plasmodium falciparum [3]
  EC50: 0.0035 µM

## C#Cc1ccc(-c2cn(CCNc3ccnc4cc(Cl)ccc34)nn2)cc1
Plasmodium falciparum [4]
  IC50: 0.18 µM

## CCOP(=O)(CCCN(O)C(=O)CCC(=O)N1CCN(c2ccnc3cc(Cl)ccc23)CC1)OCC
Plasmodium falciparum [5]
  IC50: 2.7 µM

## CCCCCCCC(=O)NCCCC(C)Nc1ccnc2cc(Cl)ccc12 (stereo not given)
Plasmodium falciparum [6]
  IC50: 109 µM
Plasmodium falciparum [7]
  IC50: 0.051 µM

## OB1OCc2ccc(OCc3cn(CCCNc4ccnc5cc(Cl)ccc45)nn3)cc21
Plasmodium falciparum [8]
  IC50: 3.91 µM
Plasmodium falciparum [9]
  IC50: 4.13 µM
[10]
  IC50 at 24 h: > 100 µM

## C[C@H]1[C@H](OC(=O)CCC(=O)OCCNc2ccnc3cc(Cl)ccc23)O[C@@H]2O[C@@]3(C)CC[C@H]4[C@H](C)CC[C@@H]1[C@@]24OO3
Plasmodium falciparum [1]
  EC50: 0.0017 µM
Plasmodium falciparum [2]
  EC50: 0.0023 µM
Plasmodium falciparum [3]
  EC50: 0.0045 µM

## O=C(O)CCCCCCCCCCCNc1ccnc2cc(Cl)ccc12
Plasmodium falciparum [11]
  IC50: 4 µM
Plasmodium falciparum [12]
  IC50: 0.031 µM

## OB1OCc2ccc(OCc3cn(CCN4CCN(c5ccnc6cc(Cl)ccc56)CC4)nn3)cc21
Plasmodium falciparum [8]
  IC50: 4.86 µM
Plasmodium falciparum [9]
  IC50: 5.31 µM
[10]
  IC50 at 24 h: 82.4 µM

## OB1OCc2ccc(OCc3cn(CCNc4ccnc5cc(Cl)ccc45)nn3)cc21
Plasmodium falciparum [8]
  IC50: 3.78 µM
Plasmodium falciparum [9]
  IC50: 4.15 µM
[10]
  IC50 at 24 h: > 100 µM

## O=C(O)C(Cc1c[nH]c2ccccc12)Nc1ccnc2cc(Cl)ccc12 (stereo not given)
Plasmodium falciparum [11]
  IC50: 5 µM
Plasmodium falciparum [12]
  IC50: 8 µM

## COc1cc(/C=N/Nc2ccnc3cc(Cl)ccc23)ccc1O
Plasmodium falciparum [13]
  IC50: 0.009 µM
Plasmodium falciparum [14]
  IC50: 0.009 µM

## CC1(C)[C@@H]2CC=C(CC(=O)Nc3ccnc4cc(Cl)ccc34)[C@H]1C2
Plasmodium falciparum [15]
  EC50: 7.84 µM
HepG2
  CC50: 14.3 µM
Plasmodium falciparum [16]
  EC50: 21.4 µM
Plasmodium falciparum [17]
  EC50: 17.1 µM

## CC1(C)[C@@H]2CC=C(CC(=O)Nc3ccnc4ccccc34)[C@H]1C2
Plasmodium falciparum [15]
  EC50: 13.9 µM
HepG2
  CC50: 3.89 µM
Plasmodium falciparum [16]
  EC50: 23.4 µM
Plasmodium falciparum [17]
  EC50: 26.4 µM

## CCCC(=O)NCCCC(C)Nc1ccnc2cc(Cl)ccc12 (stereo not given)
Plasmodium falciparum [6]
  IC50: 588 µM
Plasmodium falciparum [7]
  IC50: 0.627 µM

## C#Cc1ccc(-c2cn(CCNc3ccnc4cc(Cl)ccc34)nn2)c(F)c1
Plasmodium falciparum [4]
  IC50: 0.21 µM
Plasmodium falciparum [18]
  IC50: 0.19 µM

## CCOP(=O)(CCCN(O)C(=O)CCC(=O)NCCNc1ccnc2cc(Cl)ccc12)OCC
Plasmodium falciparum [5]
  IC50: 4.2 µM

## O=C(O)c1cn(C2CC2)c2cc(N3CCNCC3)c(F)cc2c1=O [CIPROFLOXACIN]
Plasmodium berghei
  IC50: 0.06 µM

## CCCCCCCCCCCC(=O)NCCCC(C)Nc1ccnc2cc(Cl)ccc12 (stereo not given)
Plasmodium falciparum [6]
  IC50: 160 µM
Plasmodium falciparum [7]
  IC50: 0.045 µM

## CC(C)Cc1ccc(C(C)C(=O)NCCNc2ccnc3cc(Cl)ccc23)cc1 (stereo not given)
Plasmodium falciparum [11]
  IC50: 0.201 µM
Plasmodium falciparum [12]
  IC50: 0.125 µM

## O=[N+]([O-])c1ccc(/C=N/Nc2ccnc3cc(Cl)ccc23)cc1
Plasmodium falciparum [13]
  IC50: 0.009 µM
Plasmodium falciparum [14]
  IC50: 0.009 µM
